The source of these data is patent US20080262080A1, “Allergy Suppressive Agent” (KYUSHU UNIVERSITY, NATIONAL UNIVERSITY CORPORATION, priority 2004, published 2008).

For assay [1], the system named is high-affinity IgE receptor (FcεRI). As to the kind of experiment: FcεRI expression amount on the cell surface of KU812 cells by flow cytometry. Type of assay: cell-based, human. Particulars: for FcεRI expression suppressive rate (%): 24 hours. As for the experimental part:
By using antihuman FcRI antibody (CRA1), the FcεRI expression amount on the surface of human basophil-like cell line KU812 cells was analyzed by flow cytometry. Cells having been incubated by adding DMSO alone were compared with cells having been incubated by adding chrysin. The ratio of overexpression of FcεRI is indicated in percentage. As a basal medium for incubating cells, use was made of RPMI 1640 (Nissui, Japan), to which 100 U/mL of penicillin (Meiji Pharmaceutical Company, Tokyo, Japan), […] of streptomycin (Meiji Pharmaceutical Company, Tokyo, Japan), 12.5 mM of MaHCO3 (Wako Pure Chemical Industries, Osaka, Japan) and 10 mM of HEPES Wako Pure Chemical Industries) had been added. Fetal bovine serum (FBS) purchased form Bio Source International was added to the basal medium to give a concentration of 5 to 10%. Human basophil-like cell line KU812 employed in this experiment was assigned by Japan Collection of Research Bioresources (JCRB) and subcultured and maintained in RPMI 1640 medium comprising 5 to 10% of FBS at 37° C. in 5% CO2 gas under humidification. KU812 cells were incubated in RPMI 1640 medium, to which chrysin dissolved in DMSO had been added, for 0 to 24 hours. A system wherein the cells were incubated in the medium comprising DMSO alone was used as a control. After incubating, the cells were collected and incubated in 5% FBS-PBS, to which 10 μg/mL of antihuman FcεRI α chain mouse monoclonal antibody CRA-1 (Kyokuto Pharmaceutical) had been added, at 4° C. for 40 to 60 min. As a negative control, 10 μg/mL of mouse control IgG2b antibody (DAKO) was used. Then, the cells were washed with ice-cooled PBS once and incubated in 5% FBS-PBS, to which 10 μg/mL of antimouse IgG2b FITC-labeled antibody (Protos Immunoresearch) had been added, at 4° C. for 40 to 60 min. After incubating, the cells were washed with PBS and then resuspended in PBS. The cell suspension thus obtained was analyzed by flow cytometry. In the flow cytometry analysis, FACS Calibur (Becton Sickinson, Sunnyvale, Calif.) was employed. The secondary antibody reaction and the subsequent procedures were conducted in the dark and the cells were preserved on ice while conducting the analysis. KU812 cells (5×10^5 cells/mL) was incubated in 5% bovine fetal serum comprising RPMI 1640 medium, to which chrysin (0, 1, 5 and 10 μM) and apigenin (purchased from Aldrich Chem. Co., St. Louis, Mo.; 0, 1, 5 and 10 μM) had been added, for 24 hours. After incubating, the FcεRI expression level on the cell surface was measured by flow cytometry (experimental procedure: see [0047]).
(Flow cytometry measures light scatter and fluorescence of single cells or particles in a stream.)

Another assay has as its system blood cytokine levels. As to the kind of experiment: Blood cytokine levels of OVA-sensitized mice after chrysin intake (Mouse Cytokine Array). The class given is in vivo. The source says:
Blood was collected as in Example 6 and 32 kinds of cytokines (6 Ckine, CTACK, Eotaxin, G-CSF, GM-CSF, IL-2, IL-3, Il-4, IL-5, Il-6, IL-9, IL-10, IL-12, IL-12p70, IL-13, IL-17, IFN-γ, KC, Leptin, MCP-1, MCP-5, MIP-1α, MIP-2, MIP-3β, RANTES, SCF, sTNFRI, TARC, TIMP-1, TNF-α, Tpo and VEGF) were detected using Ray Bio™ Mouse Cytokine Array (Ray Biotech, Inc.).

`O=c1cc(-c2ccccc2)oc2cc(O)cc(O)c12` [Chrysin, 5,7-dihydroxyflavone]: the “FcεRI expression amount on cell surface” value in assay [1] (flow cytometry with CRA1 antibody, compared with DMSO alone) is on record as “lowering”. Besides, in assay [1] (single agent 1 μM), the “FcεRI expression suppressive rate (%)” value is recorded as 0%. In addition, in assay [1] (single agent 5 μM), the “FcεRI expression suppressive rate (%)” value is on record as 11.5%. Also, the “FcεRI expression suppressive rate (%)” value in assay [1] (single agent 10 μM) is listed as 19.8%. Also, in the assay with blood cytokine levels (in words), the “IL-4 level after taking chrysin” value is on record as “lower than the detection limit”; the “blood levels of G-CSF, GM-CSF, leptin and TNF-α” value is “tendency toward increase”; the “cytokine levels of 26 of the 32 kinds of cytokines” value is listed as “no change”. Also, in the assay on blood cytokine levels (non-intake group = 1), the “G-CSF blood level, relative value” is listed as 2.43; the “GM-CSF blood level, relative value” stood at 1.68; the “IL-4 blood level, relative value” came out at 0; the “Leptin blood level, relative value” turned out to be 1.25. Moreover, in the assay on blood cytokine levels (non-intake group = 1), the “MCP-1 blood level, relative value” was found to be 0.49 and the “TNF-α blood level, relative value” is listed as 2.17.
